From patent US20210253518A1, “KINASE INHIBITOR” (NISSAN CHEMICAL CORPORATION, priority 2018, published 2021) come the findings set out here.

pIC50: −log10 of the molar value.

This test deals with T1, LATS1 (Homo sapiens, UniProt O95835).
T1 construct: purchased Carna Biosciences
T1 sequence (O95835 589-1130 limits assumed): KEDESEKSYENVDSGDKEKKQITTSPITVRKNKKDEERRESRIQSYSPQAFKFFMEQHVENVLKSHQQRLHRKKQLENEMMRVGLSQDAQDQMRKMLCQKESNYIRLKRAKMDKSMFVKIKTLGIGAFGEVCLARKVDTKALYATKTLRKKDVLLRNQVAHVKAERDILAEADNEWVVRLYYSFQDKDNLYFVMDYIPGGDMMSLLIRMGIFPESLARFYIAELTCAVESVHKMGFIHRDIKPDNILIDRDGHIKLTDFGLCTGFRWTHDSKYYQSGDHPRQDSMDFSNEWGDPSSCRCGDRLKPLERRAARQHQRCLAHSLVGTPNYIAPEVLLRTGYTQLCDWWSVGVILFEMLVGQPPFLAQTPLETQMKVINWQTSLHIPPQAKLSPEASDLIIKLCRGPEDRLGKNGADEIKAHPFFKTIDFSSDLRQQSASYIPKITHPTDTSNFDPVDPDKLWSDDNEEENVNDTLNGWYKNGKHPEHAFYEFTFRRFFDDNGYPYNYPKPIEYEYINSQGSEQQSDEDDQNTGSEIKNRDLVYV
The test can be described thus: Kinase Assay method (Fluorospark Kinase/ADP Multi-Assay Kit). Type of test: biochemical.

For orientation: pIC50 means −log10 of the IC50, conventionally taken in molar units. For `CC/C(=N\NC(=O)C(C)Nc1ccccc1)c1ccc(O)c(C)c1O` (stereo not drawn) [k-1:B-1], under “100 nM, read-out: LARS1 inhibitory rate (%)”, the inhibition at 0.1 µM worked out at 94%. The inhibition at 1 µM (1000 nM, read-out: LARS1 inhibitory rate (%)) is 102%. For the same compound, the negative logarithm of the IC50 (pIC50) (Kinase Assay method, 8 steps 10 μM to 0.3 nM) was 8.05.
